According to patent US9650334B2 (AbbVie Deutschland GmbH & Co. KG, priority 2013, dated 2017):

Each compound was assayed against T1, human GlyT1c transporter (Homo sapiens, UniProt P48067) (assay: Radioligand binding assays using recombinant CHO cell membranes expressing human GlyT1). Settings: Ki, radioligand binding to human GlyT1c transporter-expressing CHO cell membranes.
T1 sequence (P48067 1-706): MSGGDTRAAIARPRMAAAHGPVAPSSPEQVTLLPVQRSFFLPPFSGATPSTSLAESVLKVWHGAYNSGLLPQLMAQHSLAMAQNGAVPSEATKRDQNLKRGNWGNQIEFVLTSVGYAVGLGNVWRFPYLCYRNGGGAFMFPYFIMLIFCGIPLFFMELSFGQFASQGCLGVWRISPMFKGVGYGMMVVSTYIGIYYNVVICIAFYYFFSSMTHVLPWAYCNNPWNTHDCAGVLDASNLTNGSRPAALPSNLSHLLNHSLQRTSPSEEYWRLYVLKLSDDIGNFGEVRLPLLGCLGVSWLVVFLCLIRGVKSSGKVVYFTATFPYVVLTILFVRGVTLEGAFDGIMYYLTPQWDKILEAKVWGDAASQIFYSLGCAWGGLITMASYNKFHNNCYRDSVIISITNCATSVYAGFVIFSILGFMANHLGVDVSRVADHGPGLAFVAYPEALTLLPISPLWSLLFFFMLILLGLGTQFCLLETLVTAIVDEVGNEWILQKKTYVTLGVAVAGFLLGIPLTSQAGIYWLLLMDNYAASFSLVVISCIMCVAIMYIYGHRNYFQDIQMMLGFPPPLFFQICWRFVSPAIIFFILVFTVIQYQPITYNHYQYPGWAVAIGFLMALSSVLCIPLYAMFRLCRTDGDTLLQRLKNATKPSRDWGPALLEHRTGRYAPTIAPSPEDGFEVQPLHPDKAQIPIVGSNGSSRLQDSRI
In the case of `C[C@H]1C[C@H](C)OC([C@H]2CN(S(=O)(=O)c3cn(C)cn3)C[C@@H]2Nc2cccc(OC(F)(F)F)c2)O1` (stereo partly drawn) [Example 922, (3R,4S)-4-[(4S,6S)-4,6-dimethyl-1,3-dioxan-2-yl]-1-[(1-methyl-1H-imidazol-4-yl)sulfonyl]-N-[3-(trifluoromethoxy)phenyl]pyrrolidin-3-amine], the Ki is reported as no more than 10 nM.
Compound `Cn1cnc(S(=O)(=O)N2C[C@H](NCCCCC3OCC(C)(C)CO3)[C@@H](c3ccc(F)cc3)C2)c1` [Example 684] has a Ki of no more than 1000 nM.
Work on `Cn1cc(S(=O)(=O)N2CC(Cc3cccc(C(F)(F)F)c3)C(C3OCCCO3)C2)nn1` (centres unmarked) [Example 919, 4-({3-(1,3-dioxan-2-yl)-4-[3-(trifluoromethyl)benzyl]pyrrolidin-1-yl}sulfonyl)-1-methyl-1H-1,2,3-triazole] yielded a Ki of no more than 10000 nM.
Compound `Cn1cnc(S(=O)(=O)N2CC3c4ccccc4CCC3(NCc3ccc(F)cc3)C2)c1` (centres unmarked) [Example 889, N-(4-fluorobenzyl)-2-[(1-methyl-1H-imidazol-4-yl)sulfonyl]-1,2,3,4,5,9b-hexahydro-3aH-benzo[e]isoindol-3a-amine] has a Ki of no more than 100 nM.
Work on `Cn1cnc(S(=O)(=O)N2CC(COc3ccc(F)cc3)C(c3ccccn3)C2)c1` (centres unmarked) [Example 886, 2-{4-[(4-fluorophenoxy)methyl]-1-[(1-methyl-1H-imidazol-4-yl)sulfonyl]pyrrolidin-3-yl}pyridine] yielded a Ki of no more than 1000 nM.
With `Cn1cnc(S(=O)(=O)N2C[C@H](NCc3ccc(F)cc3)[C@@H](C3OCCCO3)C2)c1` [Example 906, (3R,4S)-4-(1,3-dioxan-2-yl)-N-(4-fluorobenzyl)-1-[(1-methyl-1H-imidazol-4-yl)sulfonyl]pyrrolidin-3-amine] the Ki was no more than 1000 nM.
In the case of `Cn1cnc(S(=O)(=O)N2CC(C(=O)NCc3ccc(F)c(Cl)c3)C3(CCCCC3)C2)c1` (centres unmarked) [Example 881, N-(3-chloro-4-fluorobenzyl)-2-[(1-methyl-1H-imidazol-4-yl)sulfonyl]-2-azaspiro[4.5]decane-4-carboxamide], the Ki is reported as no more than 1000 nM.
In the case of `Cn1cnc(S(=O)(=O)N2C[C@H](Nc3ccc(F)c(OC(F)(F)F)c3)[C@@H](C3OCCCO3)C2)c1` [Example 924, (3R,4S)-4-(1,3-dioxan-2-yl)-N-[4-fluoro-3-(trifluoromethoxy)phenyl]-1-[(1-methyl-1H-imidazol-4-yl)sulfonyl]pyrrolidin-3-amine], the Ki is reported as no more than 10 nM.
Compound `CCCCCN(C)[C@H]1CN(S(=O)(=O)c2cn(C)cn2)C[C@@H]1C1OCCCO1` [Example 907, (3R,4S)-4-(1,3-dioxan-2-yl)-N-methyl-1-[(1-methyl-1H-imidazol-4-yl)sulfonyl]-N-pentylpyrrolidin-3-amine] has a Ki of no more than 1000 nM.
Compound `Cn1cnc(S(=O)(=O)N2C[C@@H](NCc3ccc(C(F)(F)F)cc3Cl)[C@H](c3ncccc3F)C2)c1` (relative stereo) [Example 761, Trans-N-[2-chloro-4-(trifluoromethyl)benzyl]-4-(3-fluoropyridin-2-yl)-1-[(1-methyl-1H-imidazol-4-yl)sulfonyl]pyrrolidin-3-amine] has a Ki of no more than 100 nM.
`Cn1cnc(S(=O)(=O)N2CC(Nc3cccc(OC(F)(F)F)c3)C(N3CCCCC3)C2)c1` (centres unmarked) [Example 913, 1-[(1-methyl-1H-imidazol-4-yl)sulfonyl]-4-(piperidin-1-yl)-N-[3-(trifluoromethoxy)phenyl]pyrrolidin-3-amine] showed a Ki of no more than 10 nM.
In the case of `Cn1cnc(S(=O)(=O)N2C[C@H](Nc3cccc(Cl)c3)[C@@H](C3OCCCO3)C2)c1` [Example 914, (3R,4S)-N-(3-chlorophenyl)-4-(1,3-dioxan-2-yl)-1-[(1-methyl-1H-imidazol-4-yl)sulfonyl]pyrrolidin-3-amine], the Ki is reported as no more than 10 nM.
Compound `CCCCCCN1CCCC2CN(S(=O)(=O)c3cn(C)cn3)CC21` (centres unmarked) [Example 872, 1-hexyl-6-[(1-methyl-1H-imidazol-4-yl)sulfonyl]octahydro-1H-pyrrolo[3,4-b]pyridine] has a Ki greater than 10000 nM.
Work on `Cn1cc(S(=O)(=O)N2C[C@H](Nc3cccc(OC(F)(F)F)c3)[C@@H](C3OCCCO3)C2)nn1` [Example 896, (3R,4S)-4-(1,3-dioxan-2-yl)-1-[(1-methyl-1H-1,2,3-triazol-4-yl)sulfonyl]-N-[3-(trifluoromethoxy)phenyl]pyrrolidin-3-amine] yielded a Ki of no more than 10 nM.
`Cn1cnc(S(=O)(=O)N2C[C@@H](C(=O)c3cccc(F)c3)[C@H](c3ccc(F)cc3)C2)c1` (relative stereo) [Example 301] was tested, and the Ki was no more than 1000 nM.
`Cc1cc(N[C@H]2CN(S(=O)(=O)c3cn(C)cn3)C[C@@H]2C2OCCCO2)ccc1F` [Example 923, (3R,4S)-4-(1,3-dioxan-2-yl)-N-(4-fluoro-3-methylphenyl)-1-[(1-methyl-1H-imidazol-4-yl)sulfonyl]pyrrolidin-3-amine] showed a Ki of no more than 100 nM.
With `CN1CCCCC1C1CN(S(=O)(=O)c2cn(C)cn2)CC1Nc1cccc(OCC(F)(F)F)c1` (centres unmarked) [Example 894, 1-[(1-methyl-1H-imidazol-4-yl)sulfonyl]-4-(1-methylpiperidin-2-yl)-N-[3-(2,2,2-trifluoroethoxy)phenyl]pyrrolidin-3-amine] the Ki was no more than 10 nM.
With `Cn1cnc(S(=O)(=O)N2C[C@H](Nc3cccc(C(F)(F)F)c3)[C@@H](C3OCCCO3)C2)c1` [Example 915, (3R,4S)-4-(1,3-dioxan-2-yl)-1-[(1-methyl-1H-imidazol-4-yl)sulfonyl]-N-[3-(trifluoromethyl)phenyl]pyrrolidin-3-amine] the Ki was no more than 10 nM.
`Cn1cnc(S(=O)(=O)N2C[C@H](Nc3cccc(OC(F)F)c3)[C@@H](C3OCCCO3)C2)c1` [Example 925, (3R,4S)-N-[3-(difluoromethoxy)phenyl]-4-(1,3-dioxan-2-yl)-1-[(1-methyl-1H-imidazol-4-yl)sulfonyl]pyrrolidin-3-amine] gave a Ki of no more than 10 nM.
`Cn1cnc(S(=O)(=O)N2C3CCC2C(c2ccc(F)cc2)C3Nc2ccc(F)c(C(F)(F)F)c2)c1` (centres unmarked) [Example 878, 3-(4-fluorophenyl)-N-[4-fluoro-3-(trifluoromethyl)phenyl]-7-[(1-methyl-1H-imidazol-4-yl)sulfonyl]-7-azabicyclo[2.2.1]heptan-2-amine] was tested, and the Ki was no more than 10000 nM.
`Cn1cnc(S(=O)(=O)N2C[C@H](NCc3cnc(Br)s3)[C@@H](c3ccccc3)C2)c1` [Example 438, (3R,4S)-N-[(2-bromo-1,3-thiazol-5-yl)methyl]-1-[(1-methyl-1H-imidazol-4-yl)sulfonyl]-4-phenylpyrrolidin-3-amine] showed a Ki of no more than 1000 nM.
Compound `Cn1cnc(S(=O)(=O)N2C[C@H](Nc3cccc(OC(F)(F)F)c3)[C@@H](C3OCCO3)C2)c1` [Example 902, (3R,4S)-4-(1,3-dioxolan-2-yl)-1-[(1-methyl-1H-imidazol-4-yl)sulfonyl]-N-[3-(trifluoromethoxy)phenyl]pyrrolidin-3-amine] has a Ki of no more than 1000 nM.

Same assay, conditions: radioligand binding to human GlyT1c transporter-expressing CHO cell membranes
Work on “Trans-N-[4-chloro-3-(trifluoromethyl)phenyl]-1-[(1-methyl-1H-imidazol-4-yl)sulfonyl]-4-[(3S)-tetrahydro-2H-pyran-3-yl]pyrrolidin-3-amine [Example 792]” yielded a Ki of no more than 10000 nM.
In the case of “6-(cyclohexyloxy)-N-{(3R,4S)-4-(4-fluorophenyl)-1-[(1-methyl-1H-imidazol-4-yl)sulfonyl]pyrrolidin-3-yl}pyrimidin-4-amine [Example 721]”, the Ki is reported as no more than 100 nM.
Work on “2,2-difluoro-N-{(3R,4S)-4-(4-fluorophenyl)-1-[(1-methyl-1H-imidazol-4-yl)sulfonyl]pyrrolidin-3-yl}pentanamide [Example 700]” yielded a Ki of no more than 10000 nM.
In the case of “N-{(3R,4S)-4-(4-fluorophenyl)-1-[(1-methyl-1H-imidazol-4-yl)sulfonyl]pyrrolidin-3-yl}-6-(2-methylpropoxy)pyrimidin-4-amine [Example 718]”, the Ki is reported as no more than 100 nM.
